Structures are written as SMILES. ≈ marks a conversion by molar mass, not a printed value.

Holding throughout (assay): ≥ marks a high value that may be exact or a test limit, other limits are often not marked, values filed in µg/mL are converted to µM
Experiment [1] has as its system Acinetobacter baumannii NM109.
The subject of experiment [2] is Acinetobacter baumannii NM124.
For experiment [3], the system named is Acinetobacter baumannii NM35.
Experiment [4] concerns Acinetobacter baumannii NM75.
The test system of experiment [5] is Acinetobacter baumannii NM8.
The test system of experiment [6] is Acinetobacter baumannii.
Experiment [7] concerns Candida albicans ATCC 90028.
The subject of experiment [8] is Escherichia coli ATCC 25726.
The subject of experiment [9] is Staphylococcus aureus ATCC 25923.
The subject of experiment [10] is Proteus mirabilis.
For experiment [11], the system named is Pseudomonas aeruginosa.
For experiment [12], the system named is Staphylococcus aureus.
In experiment [13] the test system is Streptococcus pyogenes.
Experiment [14] deals with Bacillus anthracis Sterne 34F2.
The test system of experiment [15] is Bacillus subtilis var. niger ATCC 9372.
For experiment [16], the system named is Escherichia coli K91BK.

For the compound `CC[C@H](C)[C@H](NC(=O)CN)C(=O)N[C@@H](Cc1c[nH]c2ccccc12)C(=O)N[C@@H](CCCCN)C(=O)N[C@H](C(=O)N[C@H](C(=O)N[C@@H](CCCCN)C(=O)N[C@@H](CO)C(=O)N[C@@H](CCSC)C(=O)NCC(=O)N[C@@H](CCCCN)C(=O)N[C@H](C(=O)N[C@@H](Cc1ccccc1)C(=O)N[C@@H](C)C(=O)NCC(=O)N[C@@H](C)C(=O)N[C@H](C(=O)N[C@@H](CCCCN)C(=O)N[C@@H](CCC(N)=O)C(=O)N[C@@H](CC(N)=O)C(=O)N[C@@H](CC(C)C)C(N)=O)[C@@H](C)CC)C(C)C)[C@@H](C)CC)[C@@H](C)O` [GIWKTIKSMGKVFAGAIKQNL], the MIC – broadly, the lowest concentration that inhibits growth of the organism – in experiment [1] amounted to 3 µM (≈ 6.87 µg/mL); in experiment [2], 3 µM (≈ 6.87 µg/mL); in experiment [3] it was 3 µM (≈ 6.87 µg/mL); in experiment [4], 3 µM (≈ 6.87 µg/mL); in experiment [5], 3 µM (≈ 6.87 µg/mL); in experiment [6], 6.25 µM (≈ 14.3 µg/mL). The figures for the minimum inhibitory concentration (MIC) in experiment [7], in experiment [8] and in [9] were 12.5 µM (≈ 28.6 µg/mL), 12.5 µM (≈ 28.6 µg/mL) and 100 µM (≈ 229 µg/mL), respectively.

Regarding `CC[C@H](C)[C@H](NC(=O)CN)C(=O)N[C@@H](Cc1c[nH]c2ccccc12)C(=O)N[C@@H](CCCCN)C(=O)N[C@H](C(=O)N[C@H](C(=O)N[C@@H](CCCCN)C(=O)N[C@@H](CO)C(=O)N[C@@H](CCSC)C(=O)NCC(=O)N[C@@H](CCCCN)C(=O)N[C@H](C(=O)N[C@@H](Cc1ccccc1)C(=O)N[C@@H](C)C(=O)NCC(=O)N[C@@H](CCCCN)C(=O)N[C@H](C(=O)N[C@@H](CCCCN)C(=O)N[C@@H](CCC(N)=O)C(=O)N[C@@H](CC(N)=O)C(=O)N[C@@H](CC(C)C)C(N)=O)[C@@H](C)CC)C(C)C)[C@@H](C)CC)[C@@H](C)O` [GIWKTIKSMGKVFAGKIKQNL], the minimum inhibitory concentration (MIC) in experiment [1] turned out to be 6 µM (≈ 14.1 µg/mL); in experiment [2], 6 µM (≈ 14.1 µg/mL); in experiment [3], 6 µM (≈ 14.1 µg/mL); in [4], 3 µM (≈ 7.04 µg/mL); in experiment [5] it was 6 µM (≈ 14.1 µg/mL); in experiment [6], 6.25 µM (≈ 14.7 µg/mL). Besides, the MIC in [7] stood at 12.5 µM (≈ 29.3 µg/mL); in experiment [8] it was 25 µM (≈ 58.7 µg/mL); in [9], 100 µM (≈ 235 µg/mL).

Take `NC(N)=NCCC[C@H](NC(=O)[C@H](CCCN=C(N)N)NC(=O)[C@H](CCCN=C(N)N)NC(=O)[C@H](CCCN=C(N)N)NC(=O)[C@H](Cc1c[nH]c2ccccc12)NC(=O)[C@H](Cc1c[nH]c2ccccc12)NC(=O)[C@H](Cc1c[nH]c2ccccc12)NC(=O)[C@H](Cc1c[nH]c2ccccc12)NC(=O)[C@H](CCCN=C(N)N)NC(=O)[C@H](CCCN=C(N)N)NC(=O)[C@H](CCCN=C(N)N)NC(=O)[C@@H](N)CCCN=C(N)N)C(=O)O` [RRRRWWWWRRRR]: the minimum inhibitory concentration (MIC) in experiment [10] is 31.8 µM (≈ 64 µg/mL); in experiment [11], above 31.8 µM; in experiment [12], 3.98 µM (≈ 8 µg/mL); in [13], 0.807 µM (≈ 1.62 µg/mL).

As for `NC(N)=NCCC[C@H](NC(=O)[C@H](CCCN=C(N)N)NC(=O)[C@H](CCCN=C(N)N)NC(=O)[C@H](CCCN=C(N)N)NC(=O)[C@H](CCCN=C(N)N)NC(=O)[C@H](CCCN=C(N)N)NC(=O)[C@H](CCCN=C(N)N)NC(=O)[C@H](CCCN=C(N)N)NC(=O)[C@@H](N)Cc1c[nH]c2ccccc12)C(=O)O` [WRRRRRRRR], the MIC in experiment [10] is at least 44 µM; in [11] it was above 44 µM; in [12], 22 µM (≈ 32 µg/mL); in [13], 2.75 µM (≈ 4 µg/mL).

Take `CC(=O)N[C@@H](Cc1c[nH]c2ccccc12)C(=O)N[C@@H](CCCN=C(N)N)C(=O)N[C@@H](CO)C(=O)N[C@@H](CC(C)C)C(=O)NCC(=O)N[C@@H](CCCN=C(N)N)C(=O)N[C@H](C(=O)N[C@@H](CC(C)C)C(=O)N[C@@H](CC(C)C)C(=O)N[C@@H](CCCN=C(N)N)C(=O)N[C@@H](CC(C)C)C(=O)N[C@@H](CO)C(=O)N[C@@H](Cc1cnc[nH]1)C(=O)N[C@@H](C)C(=O)N[C@@H](CC(C)C)C(=O)N[C@@H](CCCCN)C(=O)N1CCC[C@H]1C(=O)N[C@@H](CC(C)C)C(=O)N[C@@H](C)C(=O)N[C@@H](CCCN=C(N)N)C(=O)N[C@@H](CCCN=C(N)N)C(=O)N[C@@H](CO)C(=O)NCC(=O)N[C@@H](Cc1c[nH]c2ccccc12)C(N)=O)[C@@H](C)O` [WRSLGRTLLRLSHALKPLARRSGW]: the values for the minimal inhibitory concentration (MIC) in experiment [14], in experiment [15] and in experiment [16] were 7.87 µM (≈ 22.6 µg/mL), 2.1 µM (≈ 6.03 µg/mL) and at least 100 µM, respectively.

(Values after DBAASP.)
